According to ChEMBL document CHEMBL1949550, “Pre-microRNA binding aminoglycosides and antitumor drugs as inhibitors of Dicer catalyzed microRNA processing” (Bioorg Med Chem Lett, 2012):
The source made the active and inactive calls. No cut-off for these calls is given here. *1 amine or outer side, *2 acyl side, *3 side chain or, on linkers, in order; H or OH if unused. Where a SMILES comes first, the peptide text is derived from it. Bridges are numbered along the chain shown (N, C = ends). Roman numbers before positions name the chains, in order. [ ]: non-standard residue; d: D form. Actinocin(9to1) = Cc1c2oc3c(C)ccc(C(=O)[*:1])c3nc-2c(C(=O)[*:2])c(N)c1=O; NMeV = CN[C@H](C(=O)O)C(C)C; Sar = CNCC(=O)O

Key:
[1] = test system: Nucleic Acid; assay: Displacement of ethidium bromide from human pre-hsa-mir-155 miRNA after 30 mins; format: nucleic-acid assay
[2] = Aqueous solubility of the compound; format: physicochemical; details: buffer
[3] = test system: Nucleic Acid; assay: Binding affinity to human pre-hsa-mir-155 miRNA assessed as inhibition of dicer-catalysed (33P)-labelled pre-miRNA processing at 1 mM after 1 hr by PAGE analysis; format: nucleic-acid assay; details: for residual activity: values are per cent of control
[4] = biological target: Nucleic Acid; assay: Binding affinity to human pre-hsa-mir-155 miRNA assessed as increase in fluorescence after 30 mins by fluorimetry; format: nucleic-acid assay
[5] = test system: Nucleic Acid; assay: Binding affinity to human pre-hsa-mir-155 miRNA assessed as melting temperature at 2 uM (reference value: 48 degC); format: nucleic-acid assay
[6] = test system: Nucleic Acid; assay: Binding affinity to human pre-hsa-mir-155 miRNA assessed as increase in melting temperature; format: nucleic-acid assay
[7] = test system: Nucleic Acid; assay: Binding affinity to human pre-hsa-mir-155 miRNA assessed as melting temperature at 12 uM (reference value: 48 degC); format: nucleic-acid assay
[8] = test system: Nucleic Acid; assay: Binding affinity to human pre-hsa-mir-155 miRNA assessed as melting temperature at 10 uM (reference value: 48 degC); format: nucleic-acid assay
[9] = test system: Nucleic Acid; assay: Binding affinity to human pre-hsa-mir-155 miRNA assessed as melting temperature at 112 uM (reference value: 48 degC); format: nucleic-acid assay

CCO.C[C@H]1c2cccc(O)c2C(=O)C2=C(O)[C@]3(O)C(=O)C(C(N)=O)=C(O)[C@@H](N(C)C)[C@@H]3[C@@H](O)[C@@H]21.Cl.O
Activity [1]: inactive
solubility [2]: soluble

CN1CCN(c2ccc3[nH]c(-c4ccc5[nH]c(-c6ccc(O)cc6)nc5c4)nc3c2)CC1
residual activity [3]: 40%
Kd [4]: 14 µM

Cc1c2c(c(O)c3c(O)cccc13)C(=O)[C@]1(O)C(=O)C(C(N)=O)=C(O)[C@H](N(C)C)[C@@H]1C2.Cl
Activity [1]: inactive
solubility [2]: soluble

Cc1c2c(c(O)c3c(O)ccc(Cl)c13)C(=O)[C@]1(O)C(=O)C(C(N)=O)=C(O)[C@H](N(C)C)[C@@H]1C2.Cl
Activity [1]: inactive
solubility [2]: soluble

CCN(CC)CCCC(C)Nc1c2ccc(Cl)cc2nc2ccc(OC)cc12 (stereo unspecified)
inhibition [3]: inactive

CN(C)[C@@H]1C(O)=C(C(N)=O)C(=O)[C@@]2(O)C(O)=C3C(=O)c4c(O)cccc4[C@@](C)(O)[C@H]3C[C@@H]12
Activity [1]: inactive

CN(C)[C@H]1C(O)=C(C(N)=O)C(=O)[C@@]2(O)C(O)=C3C(=O)c4c(O)ccc(Cl)c4[C@@](C)(O)[C@H]3C[C@@H]12
Activity [1]: inactive

CN(C)[C@H]1C(O)=C(C(N)=O)C(=O)[C@@]2(O)C(O)=C3C(=O)c4c(O)cccc4[C@@](C)(O)[C@H]3C[C@@H]12
Activity [1]: inactive

CN(C)c1ccc(O)c2c1C[C@H]1C[C@H]3[C@H](N(C)C)C(O)=C(C(N)=O)C(=O)[C@@]3(O)C(O)=C1C2=O
Activity [1]: inactive

CN[C@@H]1[C@@H](O[C@H]2O[C@H](CO)[C@@H](N)[C@H](O)[C@H]2O)OC2C[C@@H](N)[C@@H](O[C@H]3[C@H](O)[C@@H](O)[C@H](N)C[C@@H]3N)OC2[C@@H]1O (stereo partly specified)
residual activity [3]: 10%

CN[C@H](CC(C)C)C(=O)N[C@H]1C(=O)N[C@@H](CC(N)=O)C(=O)N[C@H]2C(=O)N[C@H]3C(=O)N[C@H](C(=O)N[C@H](C(=O)O)c4cc(O)cc(O)c4-c4cc3ccc4O)[C@H](O)c3ccc(c(Cl)c3)Oc3cc2cc(c3O[C@@H]2O[C@H](CO)[C@@H](O)[C@H](O)[C@H]2O[C@H]2C[C@](C)(N)[C@H](O)[C@H](C)O2)Oc2ccc(cc2Cl)[C@H]1O
inhibition [3]: inactive

COc1ccc2cc3[n+](cc2c1OC)CCc1cc2c(cc1-3)OCO2
inhibition [3]: inactive

COc1cccc2c1C(=O)c1c(O)c3c(c(O)c1C2=O)C[C@@](O)(C(=O)CO)C[C@@H]3O[C@H]1C[C@H](N)[C@H](O)[C@H](C)O1
residual activity [3]: 83%

COc1cccc2c1C(=O)c1c(O)c3c(c(O)c1C2=O)C[C@@](O)(C(C)=O)C[C@@H]3O[C@H]1C[C@H](N)[C@H](O)[C@H](C)O1
residual activity [3]: 19%

N=C(N)c1ccc(-c2cc3ccc(C(=N)N)cc3[nH]2)cc1
residual activity [3]: 100%

Nc1ccc2cc3ccc(N)cc3nc2c1
residual activity [3]: 93%

Cc1c2oc3c(C)ccc(C(=O)N[C@@H]4C(=O)N[C@H](C(C)C)C(=O)N5CCC[C@H]5C(=O)N(C)CC(=O)N(C)[C@@H](C(C)C)C(=O)O[C@@H]4C)c3nc-2c(C(=O)N[C@@H]2C(=O)N[C@H](C(C)C)C(=O)N3CCC[C@H]3C(=O)N(C)CC(=O)N(C)[C@@H](C(C)C)C(=O)O[C@@H]2C)c(N)c1=O (I: T[dV]P[Sar][NMeV] / II: T[dV]P[Sar][NMeV]; ester I:1-I:C, II:1-II:C; linker I:N-II:N via Actinocin(9to1))
inhibition [3]: inactive

NC[C@@H]1O[C@H](O[C@H]2[C@@H](O)[C@H](O[C@@H]3[C@@H](O)[C@H](N)C[C@H](N)[C@H]3O[C@H]3O[C@H](CN)[C@@H](O)[C@H](O)[C@H]3N)O[C@@H]2CO)[C@H](N)[C@@H](O)[C@@H]1O (stereo in doubt; form 1)
residual activity [3]: 10%
Tm [5]: 50 °C
Activity [6]: Dose-dependent effect
Tm [7]: > 70 °C
Tm [8]: > 70 °C

NC[C@@H]1O[C@H](O[C@H]2[C@@H](O)[C@H](O[C@@H]3[C@@H](O)[C@H](N)C[C@H](N)[C@H]3O[C@H]3O[C@H](CN)[C@@H](O)[C@H](O)[C@H]3N)O[C@@H]2CO)[C@H](N)[C@@H](O)[C@@H]1O (stereo in doubt; form 1) [FRAMYCETIN]
Kd [1]: 6 µM

NC[C@@H]1O[C@H](O[C@H]2[C@@H](O)[C@H](O[C@@H]3[C@@H](O)[C@H](N)C[C@H](N)[C@H]3O[C@H]3O[C@H](CN)[C@@H](O)[C@H](O)[C@H]3N)O[C@@H]2CO)[C@H](N)[C@@H](O)[C@@H]1O (stereo in doubt; form 2)
residual activity [3]: 10%
Tm [5]: 48 °C
Tm [7]: > 70 °C

NC[C@@H]1O[C@H](O[C@H]2[C@@H](O)[C@H](O[C@@H]3[C@@H](O)[C@H](N)C[C@H](N)[C@H]3O[C@H]3O[C@H](CN)[C@@H](O)[C@H](O)[C@H]3N)O[C@@H]2CO)[C@H](N)[C@@H](O)[C@@H]1O (stereo in doubt; form 2) [FRAMYCETIN]
Kd [1]: 11 µM

NCC[C@H](O)C(=O)N[C@@H]1C[C@H](N)[C@@H](O[C@H]2O[C@H](CN)[C@@H](O)[C@H](O)[C@H]2O)[C@H](O)[C@H]1O[C@H]1O[C@H](CO)[C@@H](O)[C@H](N)[C@H]1O [AMIKACIN]
Kd [1]: > 100 µM

Cc1c2c(c(O)c3c(O)cccc13)C(=O)[C@]1(O)C(=O)C(C(N)=O)=C(O)[C@@H](N(C)C)[C@@H]1C2.Cl [ANHYDROTETRACYCLINE HYDROCHLORIDE]
Activity [1]: inactive
solubility [2]: soluble

NC[C@H]1O[C@H](O[C@H]2[C@H](O)[C@@H](O[C@H]3O[C@H](CO)[C@@H](O)[C@H](N)[C@H]3O)[C@H](N)C[C@@H]2N)[C@H](N)[C@@H](O)[C@@H]1O [BEKANAMYCIN]
Kd [1]: 6 µM

CN(C)[C@@H]1C(O)=C(C(N)=O)C(=O)[C@@]2(O)C(O)=C3C(=O)c4c(O)ccc(Cl)c4[C@@H](O)[C@H]3C[C@@H]12.Cl [DEMECLOCYCLINE HYDROCHLORIDE]
Activity [1]: inactive
solubility [2]: soluble

CN[C@@H]1[C@H](O[C@H]2[C@H](O[C@H]3[C@H](O)[C@@H](O)[C@H](NC(=N)N)[C@@H](O)[C@@H]3NC(=N)N)O[C@@H](C)[C@]2(O)CO)O[C@@H](CO)[C@H](O)[C@H]1O [DIHYDROSTREPTOMYCIN]
Kd [1]: > 100 µM

CC[n+]1c(-c2ccccc2)c2cc(N)ccc2c2ccc(N)cc21 [HOMIDIUM BROMIDE]
Kd [4]: 5 µM

NC[C@@H]1O[C@@H](O[C@H]2[C@H](O)[C@@H](O[C@H]3O[C@H](CO)[C@@H](O)[C@H](N)[C@H]3O)[C@H](N)C[C@@H]2N)[C@@H](O)[C@H](O)[C@H]1O [KANAMYCIN A]
Kd [1]: 141 µM
Tm [5]: 55 °C
Activity [6]: Dose-dependent effect
Tm [7]: 64 °C
Tm [9]: > 70 °C

C=C1c2cccc(O)c2C(=O)C2=C(O)[C@]3(O)C(=O)C(C(N)=O)=C(O)[C@@H](N(C)C)[C@@H]3[C@@H](O)[C@H]12.Cl [METHACYCLINE HYDROCHLORIDE]
Activity [1]: inactive
solubility [2]: soluble

CCN[C@@H]1C[C@H](N)[C@@H](O[C@H]2OC(CN)=CC[C@H]2N)[C@H](O)[C@H]1O[C@H]1OC[C@](C)(O)[C@H](NC)[C@H]1O [NETILMICIN]
Kd [1]: > 100 µM

CN[C@@H]1[C@H](O)[C@H](NC)[C@H]2O[C@@]3(O)C(=O)C[C@@H](C)O[C@H]3O[C@@H]2[C@H]1O [SPECTINOMYCIN]
Kd [1]: > 100 µM

NC[C@H]1O[C@H](O[C@H]2[C@H](O)[C@@H](O[C@H]3O[C@H](CO)[C@@H](O)[C@H](N)[C@H]3O)[C@H](N)C[C@@H]2N)[C@H](N)C[C@@H]1O [TOBRAMYCIN]
Kd [1]: > 100 µM

BLEOMYCIN
inhibition [3]: inactive

GENTAMICIN
Kd [1]: > 100 µM
